According to PubChem BioAssay AID248 (DTP/NCI, 2004):
Several values for one entry are separate records, joined by “and”; a condition that tells them apart may be missing. Identical values can stand only once. Toxic doses and inconclusive results are not listed. No stated cut-off is given here; in the data, active means T/C of 150% or more; inactive means T/C below 125%.

Tested on: L1210 leukemia ip in BDF1 mice, survival T/C
Test: NCI In Vivo Anticancer Drug Screen. Data for tumor model L1210 Leukemia (intraperitoneal) in B6D2F1 (BDF1) mice
Conditions: endpoint: mean survival time, higher = longer survival
Outline: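 In this screen, tumor-bearing mice given compound are compared to those given vehicle, and their survival values are reported as a treated-to-control quotient.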

[1] = dose: 100.0 mg/kg/injection, schedule: Q04DX002 (ip), vehicle: Klucel (hydroxypropylcellulose) (HPC)
[2] = dose: 200.0 mg/kg/injection, schedule: Q04DX002 (ip), vehicle: Klucel (hydroxypropylcellulose) (HPC)
[3] = dose: 400.0 mg/kg/injection, schedule: Q04DX002 (ip), vehicle: Klucel (hydroxypropylcellulose) (HPC)
[4] = dose: 100.0 mg/kg/injection, schedule: Q01DX009 (ip), vehicle: Klucel (hydroxypropylcellulose) (HPC)
[5] = dose: 100.0 mg/kg/injection, schedule: Q04DX003 (ip), vehicle: Klucel (hydroxypropylcellulose) (HPC)
[6] = dose: 200.0 mg/kg/injection, schedule: Q01DX009 (ip), vehicle: Klucel (hydroxypropylcellulose) (HPC)
[7] = dose: 200.0 mg/kg/injection, schedule: Q04DX003 (ip), vehicle: Klucel (hydroxypropylcellulose) (HPC)
[8] = dose: 400.0 mg/kg/injection, schedule: Q01DX009 (ip), vehicle: Klucel (hydroxypropylcellulose) (HPC)
[9] = dose: 400.0 mg/kg/injection, schedule: Q04DX003 (ip), vehicle: Klucel (hydroxypropylcellulose) (HPC)
[10] = dose: 100.0 mg/kg/injection, schedule: Q01DX001 (ip), vehicle: Klucel (hydroxypropylcellulose) (HPC)
[11] = dose: 200.0 mg/kg/injection, schedule: Q01DX001 (ip), vehicle: Klucel (hydroxypropylcellulose) (HPC)
[12] = dose: 400.0 mg/kg/injection, schedule: Q01DX001 (ip), vehicle: Klucel (hydroxypropylcellulose) (HPC)
[13] = dose: 25.0 mg/kg/injection, schedule: Q01DX009 (ip), vehicle: Klucel (hydroxypropylcellulose) (HPC)
[14] = dose: 50.0 mg/kg/injection, schedule: Q01DX009 (ip), vehicle: Klucel (hydroxypropylcellulose) (HPC)
[15] = dose: 100.0 mg/kg/injection, schedule: Q01DX009 (ip), vehicle: saline
[16] = dose: 200.0 mg/kg/injection, schedule: Q01DX009 (ip), vehicle: saline
[17] = dose: 100.0 mg/kg/injection, schedule: Q01DX001 (ip), vehicle: saline
[18] = dose: 75.0 mg/kg/injection, schedule: Q01DX001 (ip), vehicle: saline

Measured: T/C

CCOC(=O)N(CCN1C(=O)c2ccccc2C1=O)c1cc(OC)ccc1OC
inactive: [1] 100 % of control | [2] 93 % of control | [3] 89 % of control

CCCCCCCCC(=O)CCC
inactive: [4] 98 % of control | [5] 98 % of control | [6] 98 % of control | [7] 106 % of control | [8] 98 % of control | [9] 91 % of control

c1ccc(-c2nc3ccccn3n2)cc1
inactive: [10] 101 % of control | [11] 95 % of control | [12] 103 % of control

CCCCCCNC(C)(C)[P+](=O)O
inactive: dose: 100.0 mg/kg/injection, schedule: Q04DX003 (ip), vehicle: saline 105 % of control | dose: 200.0 mg/kg/injection, schedule: Q04DX003 (ip), vehicle: saline 108 % of control | dose: 400.0 mg/kg/injection, schedule: Q04DX003 (ip), vehicle: saline 102 % of control

Cc1ccc(NCc2ccc(N(C)C)cc2)cc1
inactive: [5] 99 % of control | [7] 91 % of control | [9] 93 % of control

Nc1nnnn1-c1ccccc1
inactive: [1] 102 % of control | [2] 102 % of control | [3] 91 % of control

CN(Cc1ccc(Cl)cc1)C(=O)Nc1cccc(C(F)(F)F)c1
inactive: [13] 96 % of control | [14] 100 % of control | [4] 100 % of control and 90 % of control | [8] 88 % of control

COc1ccccc1C(C)=O
inactive: [14] 97 % of control | [4] 100 % of control | [6] 87 % of control

O=C(c1ccc(Cl)cc1)c1cccc[n+]1Cc1ccccc1
inactive: dose: 12.5 mg/kg/injection, schedule: Q04DX003 (ip), vehicle: Klucel (hydroxypropylcellulose) (HPC) 102 % of control | [13] 103 % of control | dose: 25.0 mg/kg/injection, schedule: Q04DX003 (ip), vehicle: Klucel (hydroxypropylcellulose) (HPC) 101 % of control | [14] 103 % of control | dose: 50.0 mg/kg/injection, schedule: Q04DX003 (ip), vehicle: Klucel (hydroxypropylcellulose) (HPC) 94 % of control | [4] 119 % of control | [5] 97 % of control

O=C(O)c1ccc([N+](=O)[O-])cc1C(=O)O
inactive: dose: 87.5 mg/kg/injection, schedule: Q01DX001 (ip), vehicle: saline 104 % of control | [15] 100 % of control | [5] 96 % of control | dose: 175.0 mg/kg/injection, schedule: Q01DX001 (ip), vehicle: saline 100 % of control | [16] 93 % of control | [7] 87 % of control | dose: 350.0 mg/kg/injection, schedule: Q01DX001 (ip), vehicle: saline 108 % of control

CCC(CN)(c1cccs1)c1cccs1
inactive: [10] 87 % of control | [11] 97 % of control | [12] 103 % of control

CC(=O)NS(=O)(=O)c1ccc(N=Cc2cc(Cl)cc(Cl)c2O)cc1
inactive: [15] 111 % of control | [16] 102 % of control | dose: 400.0 mg/kg/injection, schedule: Q01DX009 (ip), vehicle: saline 102 % of control

CCCCC(=O)N/N=C\c1ccc(C(=O)O)cc1
inactive: dose: 100.0 mg/kg/injection, schedule: Q01DX001 (ip), vehicle: carboxymethylcellulose (CMC) 96 % of control | dose: 200.0 mg/kg/injection, schedule: Q01DX001 (ip), vehicle: carboxymethylcellulose (CMC) 100 % of control | dose: 400.0 mg/kg/injection, schedule: Q01DX001 (ip), vehicle: carboxymethylcellulose (CMC) 110 % of control

Cc1ccc(NS(=O)(=O)c2ccc(Cl)cc2)cc1Cl
inactive: [13] 94 % of control | [14] 99 % of control | [4] 96 % of control | [5] 106 % of control | [6] 99 % of control | [7] 96 % of control | [8] 88 % of control | [9] 100 % of control

O=C(C=C(C(F)(F)F)C(F)(F)F)c1ccc(Cl)c2ccccc12
inactive: dose: 12.5 mg/kg/injection, schedule: Q01DX009 (ip), vehicle: saline with Tween-80 94 % of control | dose: 25.0 mg/kg/injection, schedule: Q01DX009 (ip), vehicle: saline with Tween-80 92 % of control | dose: 25.0 mg/kg/injection, schedule: Q04DX003 (ip), vehicle: saline with Tween-80 107 % of control | dose: 50.0 mg/kg/injection, schedule: Q04DX003 (ip), vehicle: saline with Tween-80 90 % of control

COC(=O)c1cc([N+](=O)[O-])c(C)s1
inactive: [17] 100 % of control | dose: 200.0 mg/kg/injection, schedule: Q01DX001 (ip), vehicle: saline 100 % of control | dose: 400.0 mg/kg/injection, schedule: Q01DX001 (ip), vehicle: saline 96 % of control

O=C(COc1ccc(Cl)cc1Cl)OCCOCCOCCOCCOCCOCCOCCOCCOCCOCCOCCOCCOCCO
inactive: [4] 101 % of control | [6] 101 % of control | [8] 98 % of control

COc1cc(OC)c(NC(=O)Nc2cc([N+](=O)[O-])ccc2C)cc1Cl
inactive: [1] 97 % of control | [2] 108 % of control | [3] 114 % of control

C[N+]1(C)C2CCCC1CC(=O)NC2 (stereo unspecified)
inactive: [18] 107 % of control | dose: 150.0 mg/kg/injection, schedule: Q01DX001 (ip), vehicle: saline 104 % of control | dose: 300.0 mg/kg/injection, schedule: Q01DX001 (ip), vehicle: saline 112 % of control

CN(C)c1ccc2nc3ccc(=[N+](C)C)cc-3sc2c1
inactive: dose: 5.0 mg/kg/injection, schedule: Q01DX Z (ip), vehicle: carboxymethylcellulose (CMC) 93 % of control and 90 % of control | dose: 10.0 mg/kg/injection, schedule: Q01DX Z (ip), vehicle: carboxymethylcellulose (CMC) 100 % of control and 92 % of control | dose: 12.5 mg/kg/injection, schedule: Q01DX009 (ip), vehicle: saline 107 % of control | dose: 20.0 mg/kg/injection, schedule: Q01DX Z (ip), vehicle: carboxymethylcellulose (CMC) 98 % of control and 92 % of control | dose: 25.0 mg/kg/injection, schedule: Q01DX001 (ip), vehicle: saline 102 % of control | dose: 25.0 mg/kg/injection, schedule: Q01DX009 (ip), vehicle: saline 94 % of control | dose: 40.0 mg/kg/injection, schedule: Q01DX Z (ip), vehicle: carboxymethylcellulose (CMC) 105 % of control | dose: 50.0 mg/kg/injection, schedule: Q01DX001 (ip), vehicle: saline 97 % of control | dose: 50.0 mg/kg/injection, schedule: Q01DX009 (ip), vehicle: saline 103 % of control | [17] 108 % of control

NC(CSS(=O)(=O)O)=NCCc1ccc(O)cc1
inactive: dose: 25.0 mg/kg/injection, schedule: Q04DX002 (ip), vehicle: Klucel (hydroxypropylcellulose) (HPC) 110 % of control | [1] 90 % of control and 91 % of control

c1ccc(C(c2ccccc2)c2ccncc2)cc1
inactive: dose: 100.0 mg/kg/injection, schedule: Q04DX002 (ip), vehicle: saline with Tween-80 87 % of control | dose: 200.0 mg/kg/injection, schedule: Q04DX002 (ip), vehicle: saline with Tween-80 90 % of control | dose: 400.0 mg/kg/injection, schedule: Q04DX002 (ip), vehicle: saline with Tween-80 87 % of control

Nc1ccccc1-c1ccccc1
inactive: [18] 112 % of control
